Measurements as given in PMC10632405, “A novel in silico scaffold-hopping method for drug repositioning in rare and intractable diseases” (Scientific Reports, 2023).

Biological target: PAK5 (Homo sapiens, UniProt Q9P286)
Conditions: read-out: % inhibition at 50 nM

Sequence of PAK5 (Q9P286 whole entry): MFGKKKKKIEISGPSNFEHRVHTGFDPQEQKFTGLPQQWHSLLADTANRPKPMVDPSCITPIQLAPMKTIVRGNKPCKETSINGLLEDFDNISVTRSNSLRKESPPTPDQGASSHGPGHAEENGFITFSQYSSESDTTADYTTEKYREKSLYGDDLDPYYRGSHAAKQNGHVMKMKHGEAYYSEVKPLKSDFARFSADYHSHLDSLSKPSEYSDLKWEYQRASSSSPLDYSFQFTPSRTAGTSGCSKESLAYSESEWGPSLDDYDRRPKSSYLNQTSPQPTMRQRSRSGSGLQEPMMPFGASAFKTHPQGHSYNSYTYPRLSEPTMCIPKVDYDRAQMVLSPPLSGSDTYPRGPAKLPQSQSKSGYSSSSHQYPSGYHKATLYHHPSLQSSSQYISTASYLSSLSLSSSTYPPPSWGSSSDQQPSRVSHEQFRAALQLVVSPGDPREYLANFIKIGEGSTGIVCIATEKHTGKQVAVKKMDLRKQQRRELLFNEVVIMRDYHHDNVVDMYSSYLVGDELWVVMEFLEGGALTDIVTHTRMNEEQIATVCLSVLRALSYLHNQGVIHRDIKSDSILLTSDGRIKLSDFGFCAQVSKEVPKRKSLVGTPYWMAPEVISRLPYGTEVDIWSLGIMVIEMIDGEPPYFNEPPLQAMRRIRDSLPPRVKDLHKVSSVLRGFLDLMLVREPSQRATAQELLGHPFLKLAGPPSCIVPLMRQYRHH

With `NC(=O)c1cnc(N[C@@H]2CCCC[C@@H]2N)nc1Nc1cccc(-n2nccn2)c1` [BIIB-057] the inhibition at 0.05 µM was > 50%.
